Values after ≈ are worked out from the molar mass of the structure shown. Like-named read-outs stand apart in the source and are kept apart here.
Key:
S. aureus Newman = assay: Minimal inhibitory concentration (MIC), double-dilution in broth, OD600; format: cell-based, Staphylococcus aureus Newman; conditions: unit assumed
Description: (§1) In short, a stock solution of 5 mg/mL of HKIs in DMSO was made. This stock was diluted to 50 µg/mL in broth in a 96 well plate. Dilutions were made (factor 2) directly in the plate with a multi-channel pipet. Bacteria cultured in suspension overnight were then added to the plate (except negative control) and the plate was incubated for 24 hours. After 24 hours the OD600 was measured using a spectrophotometer. A positive control (with bacteria, without HKI) was also measured on each plate.
Bacterial strains used in this study for antibacterial susceptibility testing (Table S2) were propagated using standard microbiological procedures. Minimal inhibitory concentrations (MICs) were determined following a standard double-dilution method (42), 73. […] For M. marinum, MICs were determined in Middlebrook 7H9 broth (Difco) and MICs were determined after 3 days incubation at 30 °C.
(§2) Grow the bacterial colonies to be tested from single colonies on an agar plate in LB broth or suitable bacterial growth medium overnight at 37°C. Prepare a 5 mg/mL stock solution of compounds to be tested in DMSO. One 96-well plate per bacterial strain was prepared. First, put 50 uL of medium to each well. Add 48 µL of medium to all wells in row A. Pipet 2 µL of antimicrobial master stock into the top well (row A). Beware, the antimicrobial concentration will be diluted 2x after adding the bacterial culture. Total volume in each well will be 100 µL. In A11, pipet 2 µL of DMSO. Make a serial dilution from row A to row H, pipetting 50 µL from the previous row into the new one. Mix well by pipetting up and down. Discard the last 50 µL so that there is 50 µl in each well In a clean, new plastic pipetting cup, dilute the overnight bacterial culture 100 times. Add 100 µL of bacterial overnight culture to 9900 µL of medium. Mix the suspension well. Once the serial dilutions are complete for all antimicrobial compounds, add 50 µL of diluted overnight bacterial culture to each well (except column 12). Mix by pipetting or put the plate on the shaker. Per 2 plates, close with parafilm around the edges and place in the incubator overnight. After overnight culturing, measure bacterial growth on the SpectraMax. The lowest concentration where no growth is observed is the MIC. To determine the MIB pipette 5 µL from each well of the 96 well plate where now growth was observed on to an LB agar plate, without antimicrobial. Put the plates in the incubator to grow overnight. The minimal concentration where no growth can be seen on the agar plate is the MBC.

S. suis = assay: as above; format: cell-based, Streptococcus suis; conditions: unit assumed
Description: as §1, with “each plate. The MICs were not determined in duplo/triplicate in the same experiment, however, the MICs of several HKIs were measured in different experiments and no major differences (max. 1x dilution) were found in the MICs between the experiments.” for “each plate.”
(§3) Bacterial strains used in this study for antibacterial susceptibility testing (Table S2) were propagated using standard microbiological procedures. Minimal inhibitory concentrations (MICs) were determined following a standard double-dilution method (42), 73. MICs were recorded as the lowest concentration of the compound where no visible growth was observed. After plating the dilutions around the MIC or growing them in fresh MH media, minimal bactericidal concentration (MBC) was recorded as the lowest concentration of the compound at which no colonies were formed or no growth was observed, respectively. For M. marinum, MICs were determined in Middlebrook 7H9 broth (Difco) and MICs were determined after 3 days incubation at 30 °C.
as §2

P. multocida = assay: as above; format: cell-based, Pasteurella multocida; conditions: unit assumed
Description: as §1, with “each plate. The MICs were not determined in duplo/triplicate in the same experiment, however, the MICs of several HKIs were measured in different experiments and no major differences (max. 1x dilution) were found in the MICs between the experiments.” for “each plate.”
as §3, §2

M. marinum = assay: Minimal inhibitory concentration (MIC), Middlebrook 7H9 broth, 3 days at 30 °C; format: cell-based, Mycobacterium marinum; conditions: unit assumed
Description: as §1, with “each plate. The MICs were not determined in duplo/triplicate in the same experiment, however, the MICs of several HKIs were measured in different experiments and no major differences (max. 1x dilution) were found in the MICs between the experiments.” for “each plate.”
as §3, §2

E. faecium Van A = assay: Minimal inhibitory concentration (MIC), double-dilution in broth, OD600; format: cell-based, Enterococcus faecium; conditions: unit assumed
Description: as §1, with “each plate. The MICs were not determined in duplo/triplicate in the same experiment, however, the MICs of several HKIs were measured in different experiments and no major differences (max. 1x dilution) were found in the MICs between the experiments.” for “each plate.”
as §3, §2

HEK293 = assay: Cell toxicity, Alamar blue assay, 24 hours exposure; format: cell-based; conditions: Homo sapiens, read-out: IC50 HEK293 (50 mg/mL stock); HEK293, 50 mg/mL stock
Description: (§4) Toxicity was primarily determined by measuring cytotoxicity with the Alamar blue assay. In short, cells (HEK293, NRK-52E and Caco-2) were plated in 96-well plates and cultured overnight. HKI compounds were diluted to concentrations ranging from 0.39 to 500 µg/mL in serum-free medium and added to the cells.
(§5) After exposure, cells were incubated for 24 hours. Experiments were mostly performed by single measurement. […] After 24 hours HKIs were removed from the cells and Alamar blue was added, incubated for 45 minutes and fluorescence was measured on a spectrophotometer. Alamar blue measures the conversion of blue, low fluorescent resazurin into high fluorescent pink resorufin. This conversion can only be made in viable mitochondria in viable cells and therefore this dye provides a measure for cytotoxicity.

NRK-52E = assay: as above; format: cell-based; conditions: for IC50: Rattus norvegicus
Description: as §4, §5

E. coli JW5503 = format: cell-based, Escherichia coli; conditions: unit assumed
Description: as §1, with “each plate. The MICs were not determined in duplo/triplicate in the same experiment, however, the MICs of several HKIs were measured in different experiments and no major differences (max. 1x dilution) were found in the MICs between the experiments.” for “each plate.”
as §3, §2

[1] = read-out: IC50 NRK-52E (50 mg/mL stock)

Row | Compound | MIC S. aureus Newman (S. aureus Newman) [µg/mL] | MIC S. suis (S. suis) [µg/mL] | MIC P. multocida (P. multocida) [µg/mL] | MIC M. marinum (M. marinum) [µg/mL] | MIC E. faecium Van A (E. faecium Van A) [µg/mL] | IC50 (HEK293) [µg/mL] | IC50 (NRK-52E; read-out: IC50 NRK-52E (50 mg/mL stock), 50 mg/mL stock) [µg/mL] | MIC E. coli JW5503 (E. coli JW5503) [µg/mL] | IC50 (NRK-52E; [1]) [µg/mL] | IC50 NRK-52E (50 mg/mL stock) (NRK-52E; 50 mg/mL stock)
1 | NNC(=O)COc1ccc(-c2n[nH]c(C(F)(F)F)c2-c2ccc(Cl)cc2)c(O)c1 [Sep-24, 2-[4-[4-(4-chlorophenyl)-5-(trifluoromethyl)-1∼{H}-pyrazol-3-yl]-3-hydroxy-phenoxy]acetohydr azide] | 50 (≈ 117 µM) | > 50 | > 50 | > 50 | 50 (≈ 117 µM) | 119 (≈ 279 µM) | 104 (≈ 243 µM) |  |  | 
2 | C=C(C)COc1ccc(-c2[nH]nc(C(F)(F)F)c2-c2ccc(OC)cc2)c(O)c1 [Sep-7, 2-[4-(4-methoxyphenyl)-5-(trifluoromethyl)-1∼{H}-pyrazol-3-yl]-5-(2-methylallyloxy)phenol] | 6.25 (≈ 15.5 µM) | 12.5 (≈ 30.9 µM) | > 50 | > 50 | 12.5 (≈ 30.9 µM) |  |  | 6.25 (≈ 15.5 µM) | ~7.49 (≈ 18.5 µM) | 
3 | COc1ccc(-c2c(-c3ccc(OCc4ccc(C)cc4)cc3O)n[nH]c2C(F)(F)F)cc1OC [Sep-27, 2-[4-(3,4-dimethoxyphenyl)-5-(trifluoromethyl)-1∼{H}-pyrazol-3-yl]-5-(4-methylbenzyl)oxy-phenol] | 3.13 (≈ 6.46 µM) | 50 (≈ 103 µM) | > 50 | 50 (≈ 103 µM) | > 50 |  |  | > 50 | ~17.6 (≈ 36.3 µM) | 
4 | COc1ccc(-c2c(-c3ccc(OCc4ccccc4)cc3O)n[nH]c2C(F)(F)F)cc1OC [Sep-28, 5-benzoxy-2-[4-(3,4-dimethoxyphenyl)-5-(trifluoromethyl)-1∼{H}-pyrazol-3-yl]phenol] | 12.5 (≈ 26.6 µM) | > 50 | > 50 | > 50 | > 50 |  |  | 25 (≈ 53.1 µM) | ~17.3 (≈ 36.7 µM) | 
5 | C=C(C)COc1ccc(-c2[nH]nc(C(F)(F)F)c2-c2ccccc2OC)c(O)c1 [Sep-15, 2-[4-(2-methoxyphenyl)-5-(trifluoromethyl)-1∼{H}-pyrazol-3-yl]-5-(2-methylallyloxy)phenol] | 3.13 (≈ 7.74 µM) | 12.5 (≈ 30.9 µM) | > 50 | 50 (≈ 124 µM) | 6.25 (≈ 15.5 µM) |  |  | 6.25 (≈ 15.5 µM) | ~7.62 (≈ 18.8 µM) | 
6 | COc1ccc(-c2c(C(F)(F)F)n[nH]c2-c2ccc(OCc3ccc([N+](=O)[O-])cc3)cc2O)cc1 [Sep-6, 2-[4-(4-methoxyphenyl)-5-(trifluoromethyl)-1∼{H}-pyrazol-3-yl]-5-(4-nitrobenzyl)oxyphenol] | 3.13 (≈ 6.45 µM) | 12.5 (≈ 25.8 µM) | > 50 | 50 (≈ 103 µM) | 6.25 (≈ 12.9 µM) |  |  | 12.5 (≈ 25.8 µM) | 8.42 (≈ 17.3 µM) | 
7 | Oc1ccc(-c2n[nH]c(C(F)(F)F)c2-c2ccc(Br)cc2)c(O)c1 [Sep-20, 4-[4-(4-bromophenyl)-5-(trifluoromethyl)-1∼{H}-pyrazol-3-yl]resorcinol] | 6.25 (≈ 15.7 µM) | 25 (≈ 62.6 µM) | > 50 | > 50 | 25 (≈ 62.6 µM) |  |  | 6.25 (≈ 15.7 µM) |  | 7.58
8 | COc1ccc(-c2c(C(F)(F)F)n[nH]c2-c2ccc(OCc3ccc(F)cc3)cc2O)cc1 [Sep-14, 5-(4-fluorobenzyl)oxy-2-[4-(4-methoxyphenyl)-5-(trifluoromethyl)-1∼{H}-pyrazol-3-yl]phenol] | 12.5 (≈ 27.3 µM) | 25 (≈ 54.5 µM) | > 50 | > 50 | 12.5 (≈ 27.3 µM) |  |  | 25 (≈ 54.5 µM) | ~16.6 (≈ 36.3 µM) | 
